Experiments:
Type in all cases: physicochemical
[1] = Stability of the polymorphic forms at ambient temperature
[2] = Competitive ripening experiments between Form 1 and Form 2 (relative thermodynamic stability)
Description: Forms 1 and 2 of the compound of Formula (I) are both stable at ambient temperature. Competitive ripening experiments between Form 1 and 2 of the compound of Formula (I) were conducted in i) a mixture of acetone and 1-propanol at 23° C.; ii) in acetone at 10° C. and iii) in acetone at 50° C.

[3] = Hygroscopicity of the crystalline form

SMILES | Stability at ambient temperature [1] | Polymorphic form conversion in competitive ripening experiments ([2]; i) mixture of acetone and 1-propanol at 23° C.; ii) acetone at 10° C.; iii) acetone at 50° C., same outcome in each) | Hygroscopic nature [3] | Relative thermodynamic stability ([2]; at ambient temperatures, for example at 23° C.) | Relative thermodynamic stability ([2]; between 10° C. and 50° C.)
Cc1[nH]c(CO)c(-c2ccc(Oc3ccc(OC(F)(F)F)cc3)cc2)c(=O)c1Cl [Form 1, 3-chloro-6-(hydroxymethyl)-2-methyl-5-[4-({4-[(trifluoromethyl)oxy]phenyl}oxy)phenyl]-4(1H)-pyridinone] | stable | converted to Form 2 | – | – | –
Cc1[nH]c(CO)c(-c2ccc(Oc3ccc(OC(F)(F)F)cc3)cc2)c(=O)c1Cl [Form 2, 3-chloro-6-(hydroxymethyl)-2-methyl-5-[4-({4-[(trifluoromethyl)oxy]phenyl}oxy)phenyl]-4(1H)-pyridinone] | – | – | non-hygroscopic | thermodynamically more stable than Form 1 | thermodynamically more stable than Form 1

Source: patent publication US20100256199A1, “Crystalline form of an Antimalarial Compound” (Glaxo Group Limited, priority 2007, published 2010)
